According to paper PMC11966747, “Next Generation Risk Assessment of Acute Neurotoxicity from Organophosphate Exposures Using the In Vitro–In Silico Derived Dietary Comparator Ratio” (Environmental Science & Technology, 2025):
Read-outs that look alike come from different tables or passages of the source.

Experiments:
[1] = QSAR-based prediction; ref Punt et al. 2022; Moerenhout et al. 2024; cited from earlier work
erythrocyte AChE [2] = molecular target: T1, erythrocyte AChE (Homo sapiens, UniProt P22303); details: cited from earlier work; for reported or expected adverse health outcome: ref Table S2
T1 sequence (P22303 32-617 isoform P22303-2 limits assumed): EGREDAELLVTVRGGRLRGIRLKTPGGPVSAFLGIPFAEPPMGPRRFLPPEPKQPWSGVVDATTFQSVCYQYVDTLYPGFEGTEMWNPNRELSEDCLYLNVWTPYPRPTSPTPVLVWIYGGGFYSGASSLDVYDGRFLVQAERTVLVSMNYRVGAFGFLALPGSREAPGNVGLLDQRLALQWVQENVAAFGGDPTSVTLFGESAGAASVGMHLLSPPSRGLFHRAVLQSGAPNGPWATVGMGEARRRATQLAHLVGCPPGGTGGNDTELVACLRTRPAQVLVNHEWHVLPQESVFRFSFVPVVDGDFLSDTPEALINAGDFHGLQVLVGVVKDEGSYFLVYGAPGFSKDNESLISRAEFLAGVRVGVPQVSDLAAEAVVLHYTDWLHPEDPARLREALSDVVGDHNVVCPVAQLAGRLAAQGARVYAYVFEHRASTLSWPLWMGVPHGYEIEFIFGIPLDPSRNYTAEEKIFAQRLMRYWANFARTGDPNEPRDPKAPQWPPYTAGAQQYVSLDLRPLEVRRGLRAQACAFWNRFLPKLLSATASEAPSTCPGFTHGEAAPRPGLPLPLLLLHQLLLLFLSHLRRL

erythrocyte AChE [3] = molecular target: T1, erythrocyte AChE; test: Exposure Activity Ratio (EAR) and Dietary Comparator Ratio (DCR) calculation; set-up: from tissue; host or cells: human whole peripheral blood (erythrocytes), K2EDTA anticoagulant; details: for calculated DCR value / calculated EARtest value: human
Protocol: The DCR value for an exposure scenario was calculated as the ratio of EARtest and EARcomparator (eq 1). The EARtest is scenario-specific and was defined with the IC50 of the tested organophosphate oxon for in vitro erythrocyte AChE inhibition and the PBK model-simulated CBmaxoxon at the defined exposure level (eq 2).
The DCR-based predictions were evaluated by comparing the obtained DCR results with actual knowledge of the adverse health effects reported for the respective exposure scenarios. Adverse effects cannot be ruled out for human exposure scenarios with a DCR result greater than 1, while exposure scenarios with a DCR result less than or equal to 1 are considered to raise no safety concern.[18]−[20] Once validated as an adequate predicting tool, the DCR approach was applied for evaluating the safety of exposure scenarios, for which no information on the resulting toxic outcomes was reported at the defined dose levels for humans.

erythrocyte AChE [4] = molecular target: T1, erythrocyte AChE; test: biochemical; assay type: biochemical; set-up: from tissue; host or cells: human whole peripheral blood (erythrocytes), K2EDTA anticoagulant
Protocol: Ethanol (UPLC/MS grade) was ordered from Biosolve (Valkenswaard, The Netherlands). Ultrapure water used for experiments was prepared with a Sartorius Arium Pro ultrapure water system (Göttingen, Germany). Human whole peripheral blood with K2EDTA as an anticoagulant was used for the in vitro AChE inhibition assay. K2EDTA acts as an inhibitor to the paraoxonase 1 (PON1) enzyme,[23] preventing the underestimation of the inhibition potential of organophosphate oxons due to the nontarget clearance by PON1 present in the blood samples.
Inhibition of erythrocyte AChE by the organophosphate oxon or the corresponding oxon metabolite of an organothiophosphate was measured in vitro using the method previously described.[12] The ethanolic stock solution of the test oxon was first diluted 100 times with sodium phosphate buffer (100 mM, pH 7.4), and 10 μL of the diluted solution was added to 90 μL of human whole blood sample in a 48-wells flat-bottom transparent plate (Greiner Bio-One, The Netherlands). After a 30 min incubation at room temperature, the blood samples were then diluted 20 times with ultrapure water containing 0.03% Triton-X 100 (v/v), and 20 μL of the Triton-diluted blood was incubated for 20 min following the addition of 460 μL of DTNB and 20 μL of ethopropazine (an inhibitor to plasma butyrylcholinesterase (BuChE)). After that, 100 μL of ATC was added (final concentrations of ethopropazine, DTNB, and ATC were 20 μM, 1 mM, and 1 mM, respectively), and the absorbance at 436 nm was measured continuously to detect the remaining AChE activity. Controls were carried out by replacing the test compound with sodium phosphate buffer to correct for any background absorbance.
The benchmark response (BMR) of 5% for erythrocyte AChE inhibition is a conservative end point for deriving an effect level, since regulatory bodies usually use a higher BMR (i.e., 10% or 20%) for risk assessment of acute OP pesticide exposure.[24],[25] The European Food Safety Authority (EFSA) Web tool (https://efsa.openanalytics.eu/) integrated with the R package PROAST (version 70.0) was employed for the BMC analysis (see Supporting Information).

[5] = 1 mg/kg BW single oral, a volunteer, ref APVMA. 2000 (original data of Brown. 1966)
[6] = human whole blood, BMC analysis, PROAST model averaging

COP(=S)(OC)Oc1ccc([N+](=O)[O-])cc1 [methyl parathion]
Oral absorption rate constant [1]: 0.58 h⁻¹
reported blood concentration (erythrocyte AChE [2]; 286 mg/kg BW (20 g) acute oral, person, ref Luzhnikov et al. 1977): 3 mg/L
reported or expected adverse health outcome (erythrocyte AChE [2]; human, single oral 0.003 mg/kg BW, 0.003 mg/kg): negative
reported or expected adverse health outcome (erythrocyte AChE [2]; human, single oral 0.003 mg/kg BW, listed as Methyl parathion, 0.003 mg/kg): No
reported or expected adverse health outcome (erythrocyte AChE [2]; human, single oral 0.029 mg/kg BW, 0.029 mg/kg): negative
reported or expected adverse health outcome (erythrocyte AChE [2]; human, single oral 0.029 mg/kg BW, listed as Methyl parathion, 0.029 mg/kg): No
reported or expected adverse health outcome (erythrocyte AChE [2]; human, single oral 0.057 mg/kg BW, 0.057 mg/kg): negative
reported or expected adverse health outcome (erythrocyte AChE [2]; human, single oral 0.057 mg/kg BW, listed as Methyl parathion, 0.057 mg/kg): No
reported or expected adverse health outcome (erythrocyte AChE [2]; human, single oral 0.30 mg/kg BW, 0.3 mg/kg): negative
reported or expected adverse health outcome (erythrocyte AChE [2]; human, single oral 0.30 mg/kg BW, listed as Methyl parathion, 0.3 mg/kg): No
reported or expected adverse health outcome (erythrocyte AChE [2]; human, single oral 26 mg/kg BW, 26 mg/kg): positive
reported or expected adverse health outcome (erythrocyte AChE [2]; human, single oral 26 mg/kg BW, listed as Methyl parathion, 26 mg/kg): Yes
calculated DCR value (erythrocyte AChE [3]; single oral 0.003 mg/kg BW): 0.092
calculated EARtest value (erythrocyte AChE [3]; single oral 0.003 mg/kg BW): 3.6 × 10^–3
calculated DCR value (erythrocyte AChE [3]; single oral 0.029 mg/kg BW): 0.89
calculated EARtest value (erythrocyte AChE [3]; single oral 0.029 mg/kg BW): 0.035
calculated DCR value (erythrocyte AChE [3]; single oral 0.057 mg/kg BW): 1.8
calculated EARtest value (erythrocyte AChE [3]; single oral 0.057 mg/kg BW): 0.069
calculated DCR value (erythrocyte AChE [3]; single oral 0.30 mg/kg BW): 9.2
calculated EARtest value (erythrocyte AChE [3]; single oral 0.30 mg/kg BW): 0.36
calculated DCR value (erythrocyte AChE [3]; single oral 26 mg/kg BW): 927
calculated EARtest value (erythrocyte AChE [3]; single oral 26 mg/kg BW): 36.59

CCOP(=O)(OCC)OC(=CCl)c1ccc(Cl)cc1Cl [chlorfenvinphos]
Oral absorption rate constant [1]: 0.81 h⁻¹
Reported concomitant effects (signs and symptoms) (erythrocyte AChE [2]; 0.04 mg/kg BW (3 mg), first dose of repeated exposure study, male volunteers, ref APVMA. 2000 (original data of Hunter et al. 1972)): No toxic signs was observed
Erythrocyte AChE inhibition (erythrocyte AChE [2]; [5]): 40%
Reported concomitant effects (signs and symptoms) (erythrocyte AChE [2]; [5]): no toxic signs
Reported erythrocyte AChE activity/inhibition (erythrocyte AChE [2]; [5]): Decreased erythrocyte AChE
reported or expected adverse health outcome (erythrocyte AChE [2]; human, single oral 0.04 mg/kg BW, 0.04 mg/kg): negative
reported or expected adverse health outcome (erythrocyte AChE [2]; human, single oral 0.04 mg/kg BW, listed as Chlorfenvinphos, 0.04 mg/kg): No
reported or expected adverse health outcome (erythrocyte AChE [2]; human, single oral 1 mg/kg BW, listed as Chlorfenvinphos, 1 mg/kg): No
calculated DCR value (erythrocyte AChE [3]; single oral 0.04 mg/kg BW): 3.8 × 10^–3
calculated EARtest value (erythrocyte AChE [3]; single oral 0.04 mg/kg BW): 1.5 × 10^–4
calculated EARtest value (erythrocyte AChE [3]; single oral 0.18 mg/kg BW): 6.8 × 10^–4
calculated DCR value (erythrocyte AChE [3]; single oral 1 mg/kg BW): 0.098
calculated EARtest value (erythrocyte AChE [3]; single oral 1 mg/kg BW): 3.9 × 10^–3

CCOP(=O)(OCC)Oc1nc(Cl)c(Cl)cc1Cl [chlorpyrifos oxon]
BMCL05 (lower 95% confidence limit of benchmark concentration for 5% erythrocyte AChE inhibition) (erythrocyte AChE [4]; [6]): 0.015 µM
BMCU05 (upper 95% confidence limit of benchmark concentration for 5% erythrocyte AChE inhibition) (erythrocyte AChE [4]; [6]): 0.10 µM
EARcomparator (erythrocyte AChE [3]; BMCL05/IC50 of chlorpyrifos oxon): 0.039

CCOP(=O)(OCC)Oc1cc(C)nc(C(C)C)n1 [diazoxon]
IC50 (erythrocyte AChE [4]): 1820 nM

CCOP(=S)(OCC)Oc1nc(Cl)c(Cl)cc1Cl [chlorpyrifos]
Oral absorption rate constant [1]: 1.01 h⁻¹
no-observed-adverse-effect level (NOAEL) for toxic signs and symptoms (erythrocyte AChE [2]; human volunteers, fasted overnight, single oral dose): 2 mg/kg BW
inhibition of erythrocyte AChE (erythrocyte AChE [2]; human, in vivo, po, 2 mg/kg): 28%
Erythrocyte AChE inhibition (erythrocyte AChE [2]; human, in vivo): 28%
reported or expected adverse health outcome (erythrocyte AChE [2]; human, single oral 0.01 mg/kg BW, 0.01 mg/kg): negative
reported or expected adverse health outcome (erythrocyte AChE [2]; human, single oral 0.01 mg/kg BW, listed as Chlorpyrifos, 0.01 mg/kg): No
reported or expected adverse health outcome (erythrocyte AChE [2]; human, single oral 0.012 mg/kg BW, 0.012 mg/kg): negative
reported or expected adverse health outcome (erythrocyte AChE [2]; human, single oral 0.012 mg/kg BW, listed as Chlorpyrifos, 0.012 mg/kg): No
reported or expected adverse health outcome (erythrocyte AChE [2]; human, single oral 0.03 mg/kg BW, 0.03 mg/kg): negative
reported or expected adverse health outcome (erythrocyte AChE [2]; human, single oral 0.03 mg/kg BW, listed as Chlorpyrifos, 0.03 mg/kg): No
reported or expected adverse health outcome (erythrocyte AChE [2]; human, single oral 0.1 mg/kg BW, 0.1 mg/kg): negative
reported or expected adverse health outcome (erythrocyte AChE [2]; human, single oral 0.1 mg/kg BW, listed as Chlorpyrifos, 0.1 mg/kg): No
reported or expected adverse health outcome (erythrocyte AChE [2]; human, single oral 0.5 mg/kg BW, 0.5 mg/kg): negative
reported or expected adverse health outcome (erythrocyte AChE [2]; human, single oral 0.5 mg/kg BW, listed as Chlorpyrifos, 0.5 mg/kg): No
reported or expected adverse health outcome (erythrocyte AChE [2]; human, single oral 1 mg/kg BW, 1 mg/kg): negative
reported or expected adverse health outcome (erythrocyte AChE [2]; human, single oral 1 mg/kg BW, listed as Chlorpyrifos, 1 mg/kg): No
reported or expected adverse health outcome (erythrocyte AChE [2]; human, single oral 2 mg/kg BW, listed as Chlorpyrifos, 2 mg/kg): No
reported or expected adverse health outcome (erythrocyte AChE [2]; human, single oral 214 mg/kg BW, 214 mg/kg): positive
reported or expected adverse health outcome (erythrocyte AChE [2]; human, single oral 214 mg/kg BW, listed as Chlorpyrifos, 214 mg/kg): Yes
reported or expected adverse health outcome (erythrocyte AChE [2]; human, single oral 300 mg/kg BW, 300 mg/kg): positive
reported or expected adverse health outcome (erythrocyte AChE [2]; human, single oral 300 mg/kg BW, listed as Chlorpyrifos, 300 mg/kg): Yes
calculated DCR value (erythrocyte AChE [3]; single oral 0.01 mg/kg BW): 4.6 × 10^–3
calculated EARtest value (erythrocyte AChE [3]; single oral 0.01 mg/kg BW): 1.8 × 10^–4
calculated EARtest value (erythrocyte AChE [3]; single oral 0.012 mg/kg BW): 2.2 × 10^–4
calculated DCR value (erythrocyte AChE [3]; single oral 0.03 mg/kg BW): 0.014
calculated EARtest value (erythrocyte AChE [3]; single oral 0.03 mg/kg BW): 5.4 × 10^–4
calculated DCR value (erythrocyte AChE [3]; single oral 0.1 mg/kg BW): 0.046
calculated EARtest value (erythrocyte AChE [3]; single oral 0.1 mg/kg BW): 1.8 × 10^–3
calculated DCR value (erythrocyte AChE [3]; single oral 0.5 mg/kg BW): 0.23
calculated EARtest value (erythrocyte AChE [3]; single oral 0.5 mg/kg BW): 9.2 × 10^–3
calculated DCR value (erythrocyte AChE [3]; single oral 1 mg/kg BW): 0.48
calculated EARtest value (erythrocyte AChE [3]; single oral 1 mg/kg BW): 0.019
calculated DCR value (erythrocyte AChE [3]; single oral 2 mg/kg BW): 1.0
calculated EARtest value (erythrocyte AChE [3]; single oral 2 mg/kg BW): 0.040
calculated DCR value (erythrocyte AChE [3]; single oral 214 mg/kg BW): 38
calculated EARtest value (erythrocyte AChE [3]; single oral 214 mg/kg BW): 1.50
calculated DCR value (erythrocyte AChE [3]; single oral 300 mg/kg BW): 40
calculated EARtest value (erythrocyte AChE [3]; single oral 300 mg/kg BW): 1.58
